Read-outs that look alike come from different tables or passages of the source.
Experiments:
[1] = target: maltose-binding protein (MBP) (Escherichia coli, UniProt P0AEX9); design: species or system E. coli; settings: for current signal of trapped MBP on addition of the sugar: added to the cis chamber; for frequency of state 1 / frequency of state 2 / frequency of state 3: 1 μM maltose
MBP = MBP (Escherichia coli, UniProt P0AEX9); settings: read-out: Kd, previously determined value; cited from earlier work
[2] = cited from earlier work
[3] = state 1, β anomer, −80 mV, pH 7.5
[4] = state 2, α anomer, −80 mV, pH 7.5
[5] = state 3, β anomer (second binding mode), −80 mV, pH 7.5
[6] = 10 μM sodium phosphate, before depletion of α-maltose
[7] = after depletion of α-maltose by 0.25 unit maltose phosphorylase
[8] = in the presence of ligand, −80 mV
[9] = assumption that state 3 represents MBP bound to an aldehyde intermediate

maltotriose
current signal of trapped MBP on addition of the sugar ([1]; −80 mV): four states that were almost identical to the states seen with maltose
Kd ([1]; state 1, β anomer, −80 mV, 150 mM NaCl, 15 mM Tris-HCl, pH 7.5): 120 nM
koff [1, 3]: 4.8 ± 0.3 s⁻¹
kon [1, 3]: 40.8 ± 0.1 µM⁻¹ s⁻¹
association rate of major β-anomer binding state relative to α-anomer ([1]; state 1 versus state 2): more than 3 times
Kd [1, 4]: 240 ± 10 nM
koff [1, 4]: 1.6 ± 0.1 s⁻¹
kon [1, 4]: 6.6 ± 0.1 µM⁻¹ s⁻¹
Kd [1, 5]: 380 ± 20 nM
koff [1, 5]: 1.9 ± 0.4 s⁻¹
kon [1, 5]: 5.0 ± 0.2 µM⁻¹ s⁻¹
Kd (MBP): 160 to 700 nM

OC[C@H]1O[C@H](O[C@H]2[C@H](O)[C@@H](O)[C@@H](O)O[C@@H]2CO)[C@H](O)[C@@H](O)[C@@H]1O [α-maltose]
rate constant of spontaneous interconversion between α-maltose and β-maltose [2]: ~ 0.009 min^−1

OC[C@H]1O[C@H](O[C@H]2[C@H](O)[C@@H](O)[C@@H](O[C@H]3[C@H](O)[C@@H](O)[C@@H](O[C@H]4[C@H](O)[C@@H](O)C(O)O[C@@H]4CO)O[C@@H]3CO)O[C@@H]2CO)[C@H](O)[C@@H](O)[C@@H]1O (some centres unmarked) [maltotetraose]
current signal of trapped MBP on addition of the sugar ([1]; −80 mV): three ligand-bound current levels similar to those of maltose and maltotriose

OC[C@H]1O[C@H](O[C@H]2[C@H](O)[C@@H](O)[C@H](O)O[C@@H]2CO)[C@H](O)[C@@H](O)[C@@H]1O [Maltose, maltose]
frequency of state 1 [1, 6]: 4.28 ± 0.57 s⁻¹
frequency of state 2 [1, 6]: 0.18 ± 0.17 s⁻¹
frequency of state 1 [1, 7]: 5.59 ± 0.89 s⁻¹
frequency of state 2 [1, 7]: 0 s⁻¹
frequency of state 3 ([1]; after the depletion of α-maltose): 0.01 ± 0.02 s⁻¹
frequency of state 3 ([1]; before the depletion of α-maltose): 0.05 ± 0.04 s⁻¹
residual current, state 0 [1, 8]: 56.5 ± 0.4%
residual current, state 1 [1, 8]: 54.0 ± 0.4%
residual current, state 2 [1, 8]: 52.0 ± 0.4%
residual current, state 3 [1, 8]: 51.1 ± 0.4%

O=C[C@H](O)[C@@H](O)[C@H](O[C@H]1O[C@H](CO)[C@@H](O)[C@H](O)[C@H]1O)[C@H](O)CO [aldehyde intermediate]
Kd [1, 9]: 0.019 nM
koff [1, 9]: 1.3 ± 0.5 s⁻¹
kon [1, 9]: 6.9 ± 2.8 × 10^10 M^−1s^−1

OC[C@H]1O[C@@H]2O[C@H]3[C@H](O)[C@@H](O)[C@@H](O[C@H]4[C@H](O)[C@@H](O)[C@@H](O[C@H]5[C@H](O)[C@@H](O)[C@@H](O[C@H]6[C@H](O)[C@@H](O)[C@@H](O[C@H]7[C@H](O)[C@@H](O)[C@@H](O[C@H]8[C@H](O)[C@@H](O)[C@@H](O[C@H]1[C@H](O)[C@H]2O)O[C@@H]8CO)O[C@@H]7CO)O[C@@H]6CO)O[C@@H]5CO)O[C@@H]4CO)O[C@@H]3CO [β-cyclodextrin]
current signal of trapped MBP on addition of the sugar ([1]; −80 mV): one major current level similar to state 1 of maltose

OC[C@H]1O[C@@](CO)(O[C@H]2O[C@H](CO)[C@@H](O)[C@H](O)[C@H]2O)[C@@H](O)[C@@H]1O [sucrose]
current signal of trapped MBP on addition of the sugar ([1]; −80 mV): no signal change

Reference: paper PMC7162534 (ACS nano, 2020)
